Measurements from patent US12209102B2, “Heterocyclic compounds and uses thereof” (Kumquat Biosciences Inc., priority 2022, dated 2025).

Tests used:
K-Ras G12V = biological target: T1, K-Ras G12V (Homo sapiens, UniProt P01116, G12V); test: HTRF resonance energy transfer assay, K-Ras G12V / SOS1 interaction; assay type: biochemical; details: HTRF assay of Example 5; read-out: IC50 against K-Ras G12V
T1 construct: made in house; host or cells: E. coli BL21 (DE3)
In short: (§1)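 Buffer about 5 mM HEPES pH 7.4 with ~150 mM NaCl, ~1 mM DTT, 0.05% BSA, 0.0025% (v/v) Igepal. Protein constructs used at molarity matching the IC50 range studied (e.g. ~500 nM). FRET between tagged K-Ras and hSOS1 measured after short incubation.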

K-Ras WT = biological target: T2, K-Ras WT (Homo sapiens, UniProt P01116); test: HTRF resonance energy transfer assay, K-Ras WT / SOS1 interaction; assay type: biochemical; details: HTRF assay of Example 5; read-out: IC50 against K-Ras WT
T2 construct: made in house; host or cells: E. coli BL21 (DE3)
In short: as §1

SW620 cells = test: Ras cellular assay, growth of cells with K-Ras G12V mutation (CellTiter-Glo); assay type: cell-based; details: Homo sapiens, SW-620; cell growth, Example 9, G12V mutation; read-out: IC50 against SW620 cells
In short: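 IC50 values came from a four-parameter fit of CellTiter-Glo viability, read roughly 6 days after dosing with e.g. a 10-point threefold dilution series. G12V-mutant SW620 cells (e.g. 800 per well) had been plated the previous day in RPMI-1640/10% heat-inactivated FBS, on tissue culture-treated or ultra-low attachment plates.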

K-Ras G12D = biological target: T3, K-Ras G12D (Homo sapiens, UniProt P01116, G12D); test: HTRF resonance energy transfer assay, K-Ras G12D / SOS1 interaction; assay type: biochemical; details: HTRF assay of Example 5; read-out: IC50 against K-Ras G12D
T3 construct: made in house; host or cells: E. coli BL21 (DE3)
In short: as §1

A549 cells = test: Ras cellular assay, growth of cells with K-Ras G12S mutation (CellTiter-Glo); assay type: cell-based; details: Homo sapiens, cell growth, Example 9, G12S mutation, read-out: IC50 against A549 cells
In short: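 Growth inhibition IC50 values come from four-parameter fits of CellTiter-Glo luminescence, read about 6 days after compound addition. G12S-mutant A549 cells (e.g. 800/well, RPMI-1640 + 10% heat-inactivated FBS) were plated in tissue-culture-treated or ultra-low-attachment 384-well format. Dosing began the following day with serial dilutions, e.g. 10 points, 3-fold.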

GP2D cells = test: Ras cellular assay, growth of cells with K-Ras G12D mutation (CellTiter-Glo); assay type: cell-based; details: cell growth, Example 9, G12D mutation, read-out: IC50 against GP2D cells
K-Ras G12S = biological target: T4, K-Ras G12S (Homo sapiens, UniProt P01116, G12S); test: HTRF resonance energy transfer assay, K-Ras G12S / SOS1 interaction; assay type: biochemical; details: HTRF assay of Example 5; read-out: IC50 against K-Ras G12S
T4 construct: made in house; host or cells: E. coli BL21 (DE3)
In short: as §1

T4 sequence (P01116 1-188 isoform P01116-2 G12S): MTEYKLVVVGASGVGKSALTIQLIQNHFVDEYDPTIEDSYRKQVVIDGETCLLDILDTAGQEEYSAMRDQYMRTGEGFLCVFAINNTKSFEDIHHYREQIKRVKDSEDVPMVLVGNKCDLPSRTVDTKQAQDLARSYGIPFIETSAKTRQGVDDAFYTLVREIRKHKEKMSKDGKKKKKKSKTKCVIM
T2 sequence (P01116 1-188 isoform P01116-2): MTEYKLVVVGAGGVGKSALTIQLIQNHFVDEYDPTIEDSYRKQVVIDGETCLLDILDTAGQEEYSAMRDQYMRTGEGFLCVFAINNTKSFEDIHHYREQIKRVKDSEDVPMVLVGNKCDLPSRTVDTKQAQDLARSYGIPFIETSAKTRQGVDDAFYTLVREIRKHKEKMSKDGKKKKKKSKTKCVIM
T3 sequence (P01116 1-188 isoform P01116-2 G12D): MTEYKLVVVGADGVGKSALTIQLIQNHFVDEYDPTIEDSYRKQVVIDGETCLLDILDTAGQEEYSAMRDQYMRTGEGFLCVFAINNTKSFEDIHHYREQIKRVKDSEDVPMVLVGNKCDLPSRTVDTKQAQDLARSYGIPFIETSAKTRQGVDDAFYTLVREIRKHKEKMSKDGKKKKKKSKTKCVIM
T1 sequence (P01116 1-188 isoform P01116-2 G12V): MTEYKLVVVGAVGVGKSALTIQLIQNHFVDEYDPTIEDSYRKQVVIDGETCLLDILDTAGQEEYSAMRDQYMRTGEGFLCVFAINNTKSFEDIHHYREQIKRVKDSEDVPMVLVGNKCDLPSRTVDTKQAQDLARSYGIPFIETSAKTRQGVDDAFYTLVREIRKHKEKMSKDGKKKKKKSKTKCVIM

| Compound | IC50 (K-Ras G12V) [nM] | IC50 (K-Ras WT) [nM] | IC50 (SW620 cells) [nM] | IC50 (K-Ras G12D) [nM] | IC50 (A549 cells) [nM] | IC50 (K-Ras G12S) [nM] | IC50 (GP2D cells) [nM] |
| --- | --- | --- | --- | --- | --- | --- | --- |
| C=C[C@H]1COc2c(Cl)c(-c3ccc(F)c4sc(N)c(C#N)c34)c(F)c3nc(OC[C@@]45CCCN4C[C@H](F)C5)nc(c23)N1C1CCOC1 (stereo partly drawn) [Compound 726, 2-amino-4-((5S)-8-chloro-10-fluoro-2-(((2R,7aS)-2-fluorotetrahydro-1H-pyrrolizin-7a(5H)-yl)methoxy)-4-(tetrahydrofuran-3-yl)-5-vinyl-5,6-dihydro-4H-[1,4]oxazepino[5,6,7-de]quinazolin-9-yl)-7-fluorobenzo[b]thiophene-3-carbonitrile] | < 100 | < 100 | < 5000 | < 100 | < 5000 | < 100 | < 500 |
| Cn1cc(N2CCOc3c(Cl)c(-c4ccc(F)c5sc(N)c(C#N)c45)c(F)c4nc(OC[C@@]56CCCN5C[C@H](F)C6)nc2c34)cn1 [Compound 765, 2-amino-4-(8-chloro-10-fluoro-2-(((2R,7aS)-2-fluorotetrahydro-1H-pyrrolizin-7a(5H)-yl)methoxy)-4-(1-methyl-1H-pyrazol-4-yl)-5,6-dihydro-4H-[1,4]oxazepino[5,6,7-de]quinazolin-9-yl)-7-fluorobenzo[b]thiophene-3-carbonitrile] | < 100 | < 100 | < 5000 | < 100 | < 5000 | < 100 | < 500 |
| N#Cc1c(N)sc2c(F)ccc(-c3c(Cl)c4c5c(nc(OC[C@@]67CCCN6C[C@H](F)C7)nc5c3F)N(CC(F)F)[C@@H](CN)CO4)c12 [Compound 914, 2-amino-4-((5S)-5-(aminomethyl)-8-chloro-4-(2,2-difluoroethyl)-10-fluoro-2-(((2R,7aS)-2-fluorotetrahydro-1H-pyrrolizin-7a(5H)-yl)methoxy)-5,6-dihydro-4H-[1,4]oxazepino[5,6,7-de]quinazolin-9-yl)-7-fluorobenzo[b]thiophene-3-carbonitrile] | < 100 | < 100 | < 5000 | < 100 | < 5000 | < 100 | < 500 |
| Cn1ncc(C#N)c1CN1CCOc2c(Cl)c(-c3ccc(F)c4sc(N)c(C#N)c34)c(F)c3nc(OC[C@@]45CCCN4C[C@H](F)C5)nc1c23 [Compound 641, 5-((9-(2-amino-3-cyano-7-fluorobenzo[b]thiophen-4-yl)-8-chloro-10-fluoro-2-(((2R,7aS)-2-fluorotetrahydro-1H-pyrrolizin-7a(5H)-yl)methoxy)-5,6-dihydro-4H-[1,4]oxazepino[5,6,7-de]quinazolin-4-yl)methyl)-1-methyl-1H-pyrazole-4-carbonitrile] | < 100 | < 100 | < 5000 | < 100 | < 5000 | < 100 | < 500 |
| N#Cc1c(N)sc2c(F)ccc(-c3c(Cl)c4c5c(nc(OC[C@@]67CCCN6C[C@H](F)C7)nc5c3F)N(C3CCCN(C(=O)C(F)F)C3)CCO4)c12 (stereo partly drawn) [Compound 998, 2-amino-4-(8-chloro-4-(1-(2,2-difluoroacetyl)piperidin-3-yl)-10-fluoro-2-(((2R,7aS)-2-fluorotetrahydro-1H-pyrrolizin-7a(5H)-yl)methoxy)-5,6-dihydro-4H-[1,4]oxazepino[5,6,7-de]quinazolin-9-yl)-7-fluorobenzo[b]thiophene-3-carbonitrile] | < 100 | < 100 | < 5000 | < 100 | < 5000 | < 100 | < 500 |
| C[C@H](O)[C@H]1COc2c(Cl)c(-c3ccc(F)c4sc(N)c(C#N)c34)c(F)c3nc(OC[C@@]45CCCN4C[C@H](F)C5)nc(c23)N1CC(F)F [Compound 817, 2-amino-4-((5R)-8-chloro-4-(2,2-difluoroethyl)-10-fluoro-2-(((2R,7aS)-2-fluorotetrahydro-1H-pyrrolizin-7a(5H)-yl)methoxy)-5-((S)-1-hydroxyethyl)-5,6-dihydro-4H-[1,4]oxazepino[5,6,7-de]quinazolin-9-yl)-7-fluorobenzo[b]thiophene-3-carbonitrile] | < 100 | < 100 | < 5000 | < 100 | < 5000 | < 100 | < 500 |

More lines, main results first:

| IC50 (K-Ras G12V) [nM] | IC50 (K-Ras WT) [nM] | IC50 (SW620 cells) [nM] | IC50 (K-Ras G12D) [nM] | IC50 (A549 cells) [nM] | IC50 (K-Ras G12S) [nM] | Compound | IC50 (GP2D cells) [nM] |
| --- | --- | --- | --- | --- | --- | --- | --- |
| < 100 | < 100 | < 5000 | < 100 | < 5000 | < 100 | CC(CO)N1CCOc2c(Cl)c(-c3ccc(F)c4sc(N)c(C#N)c34)c(F)c3nc(OC[C@@]45CCCN4C[C@H](F)C5)nc1c23 (stereo partly drawn) [Compound 937, 2-amino-4-(8-chloro-10-fluoro-2-(((2R,7aS)-2-fluorotetrahydro-1H-pyrrolizin-7a(5H)-yl)methoxy)-4-(1-hydroxypropan-2-yl)-5,6-dihydro-4H-[1,4]oxazepino[5,6,7-de]quinazolin-9-yl)-7-fluorobenzo[b]thiophene-3-carbonitrile] | < 500 |
| < 100 | < 100 | < 5000 | < 100 | < 5000 | < 100 | C[C@H]1CN(CCN(C)C)c2nc(OC[C@@]34CCCN3C[C@H](F)C4)nc3c(F)c(-c4ccc(F)c5sc(N)c(C#N)c45)c(Cl)c(c23)O1 [Compound 950, 2-amino-4-((6S)-8-chloro-4-(2-(dimethylamino)ethyl)-10-fluoro-2-(((2R,7aS)-2-fluorotetrahydro-1H-pyrrolizin-7a(5H)-yl)methoxy)-6-methyl-5,6-dihydro-4H-[1,4]oxazepino[5,6,7-de]quinazolin-9-yl)-7-fluorobenzo[b]thiophene-3-carbonitrile] | < 500 |
| < 100 | < 100 | < 5000 | < 100 | < 5000 | < 100 | C[C@@H]1CN(CC(F)F)c2nc(OC[C@@]34CCCN3C[C@H](F)C4)nc3c(F)c(-c4ccc(F)c5sc(N)c(C#N)c45)c(Cl)c(c23)O1 [Compound 1133, 2-amino-4-((6R)-8-chloro-4-(2,2-difluoroethyl)-10-fluoro-2-(((2R,7aS)-2-fluorotetrahydro-1H-pyrrolizin-7a(5H)-yl)methoxy)-6-methyl-5,6-dihydro-4H-[1,4]oxazepino[5,6,7-de]quinazolin-9-yl)-7-fluorobenzo[b]thiophene-3-carbonitrile] | < 500 |
| < 100 | < 100 | < 5000 | < 100 | < 5000 | < 100 | CC(F)(F)CN1CCOc2c(Cl)c(-c3ccc(F)c4sc(N)c(C#N)c34)c(F)c3nc(OC[C@@]45CCCN4C[C@H](F)C5)nc1c23 [Compound 1108, 2-amino-4-(8-chloro-4-(2,2-difluoropropyl)-10-fluoro-2-(((2R,7aS)-2-fluorotetrahydro-1H-pyrrolizin-7a(5H)-yl)methoxy)-5,6-dihydro-4H-[1,4]oxazepino[5,6,7-de]quinazolin-9-yl)-7-fluorobenzo[b]thiophene-3-carbonitrile] | < 500 |
| < 100 | < 100 | < 5000 | < 100 | < 5000 | < 100 | N#Cc1c(N)sc2c(F)ccc(-c3c(Cl)c4c5c(nc(OC[C@@]67CCCN6C[C@H](F)C7)nc5c3F)N(CCC(F)F)CCCO4)c12 [Compound 1212, 2-amino-4-(9-chloro-4-(3,3-difluoropropyl)-11-fluoro-2-(((2R,7aS)-2-fluorotetrahydro-1H-pyrrolizin-7a(5H)-yl)methoxy)-4,5,6,7-tetrahydro-[1,5]oxazocino[4,3,2-de]quinazolin-10-yl)-7-fluorobenzo[b]thiophene-3-carbonitrile] | < 500 |
| < 100 | < 100 | < 5000 | < 100 | < 5000 | < 100 | CC(C)(C#N)CN1CCOc2c(Cl)c(-c3ccc(F)c4sc(N)c(C#N)c34)c(F)c3nc(OC[C@@]45CCCN4C[C@H](F)C5)nc1c23 [Compound 1048, 2-amino-4-(8-chloro-4-(2-cyano-2-methylpropyl)-10-fluoro-2-(((2R,7aS)-2-fluorotetrahydro-1H-pyrrolizin-7a(5H)-yl)methoxy)-5,6-dihydro-4H-[1,4]oxazepino[5,6,7-de]quinazolin-9-yl)-7-fluorobenzo[b]thiophene-3-carbonitrile] | < 500 |
